B1: mero-CBD: cdc42 binding domain of WASP (amino acids 201 to 321) conjugated to the merocyanine dye shown in FIG. 11 (conjugate)
chain: DIQNPDITSSRYRGLPAPGPSPADKKRSGKKKISKADIGAPSGFKHVSHVGWDPQNGFDVNNLDPDLRSLCSRAGISEAQLTDAETSKLIYDFIEDQGGLEAVRQEMRRQEPLPPPPPPSHHHHHH

Experiments:
[1] = Spectral data of merocyanine dyes (absorbance and fluorescence spectra); type: physicochemical; set-up: Absorption Maximum / Emission Maximum: unit not given here; settings: n-butanol
Procedure: Absorbance spectra were recorded on Hewlett-Packard HP8452 diode array spectrophotometer and fluorescence spectra were recorded on SPEX Fluorolog 2 spectrometer.

Rac1 = molecular target: T1, Rac1 (Homo sapiens, UniProt P63000); assay: Fluorescence of mero-CBD with activated Rac1; type: binding; settings: Rac1 pre-equilibrated with GTPγS
T1 construct: 6His; made in house
Procedure: (§1) Analyses of the solvatochromic activation indicator—A solution of mero-CBD (300 nM) in assay buffer was mixed 1:1 (v/v) with solutions of cdc42 (concentration as indicated), pre-equilibrated with 10 mM GDP or GTPγS as described in Knaus, U. G., Heyworth, P. G., Kinsella, B. T., Curnutte, J. T., and Bokoch, G. M. (1992) J. Biol. Chem. 267, 23575-23582. Emission wavelength of 630 nm and excitation wavelength of 600 nm were used to acquire excitation and emission spectra, respectively. For nucleotide dependence, cdc42 (500 nM) was pre-incubated with varying concentrations of GTPγS (1 to 500 nM). Rac1 and RhoA GTPases were pre-equilibrated with GTP […]S in the same manner.
(§2) Fluorescence increase as a measure of CBD-cdc42 interaction—The functionality and specificity of mero-CBD was characterized by measuring fluorescence in the presence of saturating amounts of cdc42-GDP or cdc42-GTPγS. […] Negligible increase (<5%) was also observed in the presence of activated Rac1. No effect on the mero-CBD fluorescence was observed when RhoA-GTPγS was present. Furthermore, even in the presence of excess of activated Rac1 and RhoA, GDP- and GTPγS-bound forms of cdc42 were easily distinguished by CBD-A4C fluorescence (data not shown).

cdc42 = molecular target: T2, cdc42 (Homo sapiens, UniProt P60953); assay: Fluorescence of mero-CBD solvatochromic activation indicator with cdc42; type: binding; settings: for increase of fluorescence intensity on binding activated cdc42: cdc42-GTPγS, excitation and emission maxima
T2 construct: 6His; made in house
T2 sequence (P60953 whole entry, species assumed): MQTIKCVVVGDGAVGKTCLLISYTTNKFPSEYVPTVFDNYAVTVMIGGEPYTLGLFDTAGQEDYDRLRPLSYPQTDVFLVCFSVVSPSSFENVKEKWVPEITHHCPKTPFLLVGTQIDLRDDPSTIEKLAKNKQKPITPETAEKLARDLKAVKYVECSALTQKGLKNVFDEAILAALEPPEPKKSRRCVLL
Procedure: as §1, §2

RhoA = molecular target: T3, RhoA (Homo sapiens, UniProt P61586); assay: Fluorescence of mero-CBD with RhoA-GTPγS; type: binding; settings: RhoA-GTPγS present
T3 construct: 6His; made in house
T3 sequence (P61586 whole entry, species assumed): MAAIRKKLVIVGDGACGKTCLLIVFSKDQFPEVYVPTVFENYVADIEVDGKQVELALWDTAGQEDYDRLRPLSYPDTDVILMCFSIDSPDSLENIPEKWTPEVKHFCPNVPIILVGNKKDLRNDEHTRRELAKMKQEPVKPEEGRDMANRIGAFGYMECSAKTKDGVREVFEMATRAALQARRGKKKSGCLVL
Procedure: as §1, §2

Molecule | Extinction coefficient (*10^−3) [1] | Quantum Yield [1] | Absorption Maximum [1] | Emission Maximum [1] | fluorescence increase in presence of activated Rac1 (Rac1) | increase of fluorescence intensity on binding activated cdc42 (cdc42) | increase of fluorescence intensity on binding activated cdc42 (cdc42; listed as CBD biosensor) | fluorescence increase in presence of cdc42-GDP (cdc42; saturating cdc42-GDP) | effect on mero-CBD fluorescence of RhoA-GTPγS (RhoA)
CC1(C)/C(=C/C=C/C=C2/C(=O)c3ccccc3C2=C(C#N)C#N)N(CCCS(=O)(=O)[O-])c2ccccc21.[Na+] [Compound 4] | 80 | 0.10 | – | – | – | – | – | – | –
CC1(C)/C(=C/C=C/C=C2/C(=O)c3ccccc3S2(=O)=O)N(CCCS(=O)(=O)[O-])c2ccccc21.[Na+] [Compound 3] | 120 | 0.17 | – | – | – | – | – | – | –
O=C1/C(=C/C=C/C=C2/Sc3ccccc3N2CCCS(=O)(=O)[O-])S(=O)(=O)c2ccccc21.[Na+] [Compound 2] | 100 | 0.10 | 603 | 623 | – | – | – | – | –
B1 | – | – | – | – | < 5% | Approximately 3.5 fold | up to 3.5 fold | not cdc42-GDP | No effect

From patent US7745377B2, “Labeled peptides, proteins and antibodies and processes and intermediates useful for their preparation” (priority 2000, dated 2010)
